Patent publication US20250257041A1, “INDUCERS OF INTEGRATED STRESS RESPONSE TO TREAT CANCER” (The Board of Regents of The University of Texas System, priority 2022, published 2025)
Read-outs that look alike come from different tables or passages of the source.

How the values were obtained:
[1] = tested on: HCT116 GCN2KO; assay: Proliferation of HCT116 cells with GCN2 knocked out (CRISPR), Cell TiterGlo; format: cell-based, human; details: Homo sapiens
Experimental: Briefly, compounds were tested for their effect on proliferation of HCT116 colorectal cell lines using Cell TiterGlo (Promega). Each compound was tested in a 10-point dose response experiment in triplicate. Multiple values in the column titled HCT116 WT reflect separate independent experiments. The three columns titled “HCT116 WT (repeat)”, “HCT116-CGN2KO” and “HCT116 WT+ISRIB” provide data for selected compounds that were tested simultaneously under three conditions. The HCT116 WT column lists IC50 against the wild type HCT116 colorectal cancer cell line. The HCT116-CGN2KO lists IC50 data for cells in which one component of the integrated stress response, GCN2, has been knocked out using CRISPR technology.

[2] = tested on: HCT116 WT; assay: Proliferation of HCT116 colorectal cell line, Cell TiterGlo; format: cell-based, human; details: for HCT116 IC50 (uM) HCT116 WT: wild type HCT116
Procedure, shortened: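 HCT116 colorectal cells, wild type, GCN2 CRISPR knockout, or wild type plus ISRIB; proliferation read by CellTiter-Glo luminescence. 10-point dose response in triplicate, IC50 reported; multiple values are independent experiments.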

[3] = HCT-116, HCT116 cells with GCN2 knocked out using CRISPR, read-out: HCT116 IC50 (uM) HCT116 − GCN2KO
[4] = Homo sapiens, HCT-116, wild type HCT116, 10-point dose response in triplicate, multiple values = separate independent experiments, read-out: HCT116 IC50 (uM) HCT116 WT
[5] = Homo sapiens, HCT-116, wild type HCT116, tested simultaneously with GCN2KO and +ISRIB, read-out: HCT116 IC50 (uM) HCT116 WT (repeat)
[6] = wild type HCT116, compound plus 10 nM of ISRIB, read-out: HCT116 IC50 (uM) HCT116 WT + ISRIB
[7] = 10-point dose response in triplicate, multiple values = separate independent experiments

How did the IC50 [1, 3] turn out when `Cn1nc(-c2ccc(NC(=O)c3cccnc3)cc2)cc1NC(=O)c1ccccc1` [SW393127, N-(4-(5-benzamido-1-methyl-1H-pyrazol-3-yl)phenyl)nicotinamide] was run?
Its IC50 is 6.64 µM.

And the IC50 [2, 4]?
Its IC50 is 0.5 µM.

What about the IC50 [2, 5] of the same compound?
The IC50 was 1.46 µM.

And the IC50 [2, 6]?
The IC50 was 7.5 µM.

Which IC50 [1, 3] does the source give for `Cn1nc(-c2ccc(NC(=O)c3ccccc3Br)cc2)cc1NC(=O)c1ccccc1` [SW393133, N-(4-(5-benzamido-1-methyl-1H-pyrazol-3-yl)phenyl)-2-bromobenzamide] here?
The IC50 was 0.21 µM.

And the IC50 [2, 4]?
Its IC50 is 0.01 µM.

And the IC50 [2, 5]?
Its IC50 is 0.03 µM.

What about the IC50 [2, 6] of the same compound?
Its IC50 is 0.3 µM.

Which results are given for `Cn1nc(-c2ccc(NC(=O)c3cccc(C(=O)c4ccccc4)c3)cc2)cc1NC(=O)c1ccccc1` [SW389004, N-(4-(5-Benzamido-1-methyl-1H-pyrazol-3-yl)phenyl)-3-benzoylbenzamide]?
IC50 [1, 3]: 7.75 µM; IC50 [2, 4]: 5.7 µM; IC50 [2, 5]: 7.47 µM; IC50 [2, 6]: 7.22 µM

Which results are given for `Cn1nc(-c2ccc(NC(=O)c3ccccc3Cl)cc2)cc1NC(=O)c1ccc(C2(C(F)(F)F)N=N2)cc1` [SW393142, 2-Chloro-N-(4-(1-methyl-5-(4-(3-(trifluoromethyl)-3H-diazirin-3-yl)benzamido)-1H-pyrazol-3-yl)phenyl)benzamide]?
IC50 ([1]; HCT-116, read-out: HCT116 IC50 (uM) HCT116 − GCN2KO): 3.22 µM; IC50 ([2]; Homo sapiens, HCT-116, read-out: HCT116 IC50 (uM) HCT116 WT): 3.6 µM; IC50 ([2]; Homo sapiens, HCT-116, read-out: HCT116 IC50 (uM) HCT116 WT (repeat)): 1.59 µM; IC50 ([2]; read-out: HCT116 IC50 (uM) HCT116 WT + ISRIB, wild type HCT116, compound plus 10 nM of ISRIB): 3.41 µM

With `C#CCOc1ccc(C(=O)c2cccc(C(=O)Nc3cc(-c4ccc(NC(=O)c5ccccc5)cc4)nn3C)c2)cc1` [SW389152, N-(3-(4-Benzamidophenyl)-1-methyl-1H-pyrazol-5-yl)-3-(4-(prop-2-yn-1-yloxy)benzoyl)benzamide] as the compound, how does the IC50 [1, 3] read?
Its IC50 is 0.65 µM.

What about the IC50 [2, 4] of the same compound?
The IC50 was 0.305 µM.

What about the IC50 [2, 5] of the same compound?
The IC50 was 0.31 µM.

What about the IC50 [2, 6] of the same compound?
Its IC50 is 0.71 µM.

Which results are given for `C#CCOc1ccc(C(=O)c2cccc(C(=O)Nc3cc(-c4ccc(NC(=O)c5ccccc5Cl)cc4)nn3C)c2)cc1` [SW393141, 2-Chloro-N-(4-(1-methyl-5-(3-(4-(prop-2-yn-1-yloxy)benzoyl)benzamido)-1H-pyrazol-3-yl)phenyl)benzamide]?
IC50 [1, 3]: 0.49 µM; IC50 [2, 4]: 0.12 µM; IC50 [2, 5]: 0.3 µM; IC50 [2, 6]: 0.41 µM

`C#CCN(C(=O)c1ccccc1Cl)c1ccc(-c2cc(NC(=O)c3ccccc3)n(C)n2)cc1` [SW393174, N-(4-(5-Benzamido-1-methyl-1H-pyrazol-3-yl)phenyl)-2-chloro-N-(prop-2-yn-1-yl)benzamil-de] was tested. Which IC50 [1, 3] did it give?
The IC50 was 6.37 µM.

And the IC50 [2, 4]?
Its IC50 is 6.1 µM.

And the IC50 [2, 5]?
Its IC50 is 7.18 µM.

And the IC50 [2, 6]?
The IC50 was 6.52 µM.

`Cn1nc(-c2ccc(NC(=O)c3ccccc3)cc2)cc1NC(=O)c1cccc(C#N)c1` [SW389158, N-(3-(4-Benzamidophenyl)-1-methyl-1H-pyrazol-5-yl)-3-cyanobenzamide] was tested. Which IC50 [1, 3] did it give?
The IC50 was 2.96 µM.

And the IC50 [2, 4]?
The IC50 was 0.561 µM.

What about the IC50 [2, 5] of the same compound?
Its IC50 is 0.39 µM.

And the IC50 [2, 6]?
The IC50 was 3.01 µM.

For `C#Cc1ccc(C(=O)Nc2cc(-c3ccc(NC(=O)c4ccccc4)cc3)nn2C)cc1` [SW389008, N-(3-(4-Benzamidophenyl)-1-methyl-1H-pyrazol-5-yl)-4-ethynylbenzamide], which IC50 [1, 3] is on record?
The IC50 was at least 50 µM.

What about the IC50 [2, 4] of the same compound?
Its IC50 is over 50 µM.

And the IC50 [2, 5]?
Its IC50 is at least 50 µM.

For `Cn1nc(-c2ccc(NC(=O)c3ccccc3)cc2)cc1NC(=O)c1cccnc1` [SW393128, N-(3-(4-benzamidophenyl)-1-methyl-1H-pyrazol-5-yl)nicotinamide], which IC50 [1, 3] is on record?
Its IC50 is 4.05 µM.

What about the IC50 [2, 4] of the same compound?
The IC50 was 0.2 µM.

What about the IC50 [2, 5] of the same compound?
Its IC50 is 0.48 µM.

And the IC50 [2, 6]?
The IC50 was 3.73 µM.

How did the IC50 [1, 3] turn out when `C#CCOc1ccc(C(=O)c2ccc(C(=O)Nc3cc(-c4ccc(NC(=O)c5ccccc5)cc4)nn3C)cc2)cc1` [SW389012, N-(3-(4-Benzamidophenyl)-1-methyl-1H-pyrazol-5-yl)-4-(4-(prop-2-yn-1-yloxy)benzoyl)benzamide] was run?
The IC50 was 19.2 µM.

What about the IC50 [2, 4] of the same compound?
The IC50 was over 50 µM.

What about the IC50 [2, 5] of the same compound?
Its IC50 is 7.01 µM.

Which results are given for `C#CCOc1cccc(C(=O)Nc2cc(-c3ccc(NC(=O)c4ccccc4Cl)cc3)nn2C)c1` [SW393125, 2-Chloro-N-(4-(1-methyl-5-(3-(prop-2-yn-1-yloxy)benzamido)-1H-pyrazol-3-yl)phenyl)benz-amide]?
IC50 [1, 3]: 0.07 µM; IC50 [2, 4]: 0.012 µM; IC50 [2, 5]: 0.03 µM; IC50 [2, 6]: 0.07 µM

Which IC50 [2, 4] does the source give for `Cn1nc(-c2ccc(NC(=O)c3ccccc3Cl)cc2)cc1NC(=O)N1CCOCC1` [SW394873, N-(3-(4-(2-Chlorobenzamido)phenyl)-1-methyl-1H-pyrazol-5-yl)morpholine-4-carboxamide] here?
The IC50 was 0.29 µM.

For `Cc1ccccc1C(=O)Nc1cc(-c2ccc(NC(=O)c3ccccc3Cl)cc2)nn1C` [SW393217, 2-chloro-N-(4-(1-methyl-5-(2-methylbenzamido)-1H-pyrazol-3-yl)phenyl)benzamide], which IC50 [2, 4] is on record?
Its IC50 is 0.03 µM.

Which IC50 [2, 4] does the source give for `C#CCOCc1ccccc1C(=O)Nc1ccc(-c2cc(NC(=O)c3ccccc3)n(C)n2)cc1` [SW393189, N-(4-(5-benzamido-1-methyl-1H-pyrazol-3-yl)phenyl)-2-((prop-2-yn-1-yloxy)methyl)benzamide] here?
Its IC50 is 0.06 µM.

Which IC50 [2, 4] does the source give for `Cn1nc(-c2ccc(NC(=O)c3ccccc3COCCN=[N+]=[N-])cc2)cc1NC(=O)c1cccc(C(=O)c2ccccc2)c1` [SW394738, 2-((2-azidoethoxy)methyl)-N-(4-(5-(3-benzoylbenzamido)-1-methyl-1H-pyrazol-3-yl)phenyl)benzamide] here?
The IC50 was 0.07 µM.

For `C#CCOCc1ccccc1C(=O)Nc1ccc(-c2cc(NC(=O)c3cccc(N=[N+]=[N-])c3)n(C)n2)cc1` [SW393280, N-(4-(5-(3-azidobenzamido)-1-methyl-1H-pyrazol-3-yl)phenyl)-2-((prop-2-yn-1-yloxy)methyl)benzamide], which IC50 [2, 4] is on record?
The IC50 was 0.12 µM.

How did the “HCT116 IC50 (uM) HCT116 WT” value [2, 7] turn out when `COc1ccc(C(=O)Nc2cc(-c3ccc(N)cc3)nn2C)cc1` [SW388717, N-(3-(4-Aminophenyl)-1-methyl-1H-pyrazol-5-yl)-4-methoxybenzamide] was run?
The value was “inactive”.

Which IC50 [2, 4] does the source give for `Cn1nc(-c2ccc(NC(=O)c3ccccc3Cl)cc2)cc1NC(=O)c1cccc(OCCNC(=O)OC(C)(C)C)c1` [SW394968, tert-butyl (2-(3-((3-(4-(2-chlorobenzamido)phenyl)-1-methyl-1H-pyrazol-5-yl)carbamoyl)phenoxy)ethyl)carbamate] here?
The IC50 was 0.062 µM.

With `Cn1nc(-c2ccc(NC(=O)c3ccccc3-c3ccc([N+](=O)[O-])cc3)cc2)cc1NC(=O)c1ccccc1` [SW394548, N-(4-(5-Benzamido-1-methyl-1H-pyrazol-3-yl)phenyl)-4′-nitro-[1,1′-biphenyl]-2-carboxam-ide] as the compound, how does the IC50 [2, 4] read?
Its IC50 is 1.13 µM.

Which “HCT116 IC50 (uM) HCT116 WT” value [2, 7] does the source give for `O=C(Nc1cccc(-c2ccc(NC(=O)c3ccccc3Cl)cc2)n1)c1ccccc1` [SW394535, N-(4-(6-benzamidopyridin-2-yl)phenyl)-2-chlorobenzamide] here?
The value was “inactive”.

For `Cc1ncccc1C(=O)Nc1ccc(-c2cc(NC(=O)C3CCC(F)(F)CC3)n(C)n2)c(F)c1` [SW394696, N-(4-(5-(4,4-Difluorocyclohexane-1-carboxamido)-1-methyl-1H-pyrazol-3-yl)-3-fluorophen-yl)-2-methylnicotinamide], which IC50 [2, 4] is on record?
Its IC50 is 0.09 µM.

With `C#Cc1cccc(C(=O)Nc2cc(-c3ccc(NC(=O)c4cccc(C5(C(F)(F)F)N=N5)c4)cc3)nn2C)c1` [SW393243, 3-Ethynyl-N-(1-methyl-3-(4-(3-(3-(trifluoromethyl)-3H-diazirin-3-yl)benzamido)phenyl)-1H-pyrazol-5-yl)benzamide] as the compound, how does the IC50 [2, 4] read?
The IC50 was 17 µM.

How did the IC50 [2, 4] turn out when `COc1ccc(C(=O)Nc2cc(-c3ccc(NC(=O)c4ccccc4)cc3)nn2C)cc1` [SW388718, N-(3-(4-Benzamidophenyl)-1-methyl-1H-pyrazol-5-yl)-4-methoxybenzamide] was run?
Its IC50 is 2.03 µM.

`CN(C)c1cccc(C(=O)Nc2cc(-c3ccc(NC(=O)c4ccccc4Cl)cc3)nn2C)c1` [SW394870, 2-Chloro-N-(4-(5-(3-(dimethylamino)benzamido)-1-methyl-1H-pyrazol-3-yl)phenyl)benzamide] was tested. Which IC50 [2, 4] did it give?
Its IC50 is 0.02 µM.
